Where a name gives a salt, the structure may show the parent alone. Active and inactive are the calls of the source. The calls are words filed in the database; no cut-off is given here.
Legend:
[1] = molecular target: 5-hydroxytryptamine receptor 2B (Homo sapiens, UniProt P41595); experiment: Binding affinity to 5-HT2BR (unknown origin)
D(2) dopamine receptor = D(2) dopamine receptor (Homo sapiens, UniProt P14416); experiment: Displacement of [3H]-raclopride from human D2L receptor expressed in HEK293 cells incubated for 1 hr by liquid scintillation counting method; type: cell-based
D(2) dopamine receptor, sequence (P14416 whole entry): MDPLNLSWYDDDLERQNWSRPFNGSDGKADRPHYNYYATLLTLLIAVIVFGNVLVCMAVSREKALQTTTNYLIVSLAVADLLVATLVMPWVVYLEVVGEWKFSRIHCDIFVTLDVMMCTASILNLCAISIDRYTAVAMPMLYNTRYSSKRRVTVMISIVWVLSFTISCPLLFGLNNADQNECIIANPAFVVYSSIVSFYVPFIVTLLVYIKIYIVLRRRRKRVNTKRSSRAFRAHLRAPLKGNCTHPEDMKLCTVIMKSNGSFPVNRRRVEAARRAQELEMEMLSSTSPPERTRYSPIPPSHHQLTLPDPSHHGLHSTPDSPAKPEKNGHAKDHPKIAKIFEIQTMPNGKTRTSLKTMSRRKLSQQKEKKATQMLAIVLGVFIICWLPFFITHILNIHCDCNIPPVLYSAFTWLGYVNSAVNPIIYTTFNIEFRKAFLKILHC

[2] = molecular target: 5-hydroxytryptamine receptor 7 (Homo sapiens, UniProt P34969); experiment: Displacement of [3H]-5-CT from human 5HT7 receptor expressed in HEK293 cells incubated for 1 hr by liquid scintillation counting method; type: cell-based
5-hydroxytryptamine receptor 7, sequence (P34969 whole entry): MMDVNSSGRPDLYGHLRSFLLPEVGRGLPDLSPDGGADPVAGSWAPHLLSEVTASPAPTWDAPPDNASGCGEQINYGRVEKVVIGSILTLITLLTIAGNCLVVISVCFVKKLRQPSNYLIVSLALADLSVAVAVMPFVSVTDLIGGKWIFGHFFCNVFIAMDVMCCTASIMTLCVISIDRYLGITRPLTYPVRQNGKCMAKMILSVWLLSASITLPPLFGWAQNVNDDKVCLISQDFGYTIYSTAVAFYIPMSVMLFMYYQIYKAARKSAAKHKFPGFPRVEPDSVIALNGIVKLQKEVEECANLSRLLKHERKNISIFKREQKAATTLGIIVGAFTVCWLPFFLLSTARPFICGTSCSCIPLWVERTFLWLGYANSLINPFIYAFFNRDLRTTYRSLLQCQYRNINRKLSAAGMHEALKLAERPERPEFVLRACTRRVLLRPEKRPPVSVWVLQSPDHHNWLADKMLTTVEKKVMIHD

[3] = molecular target: T1, 5-hydroxytryptamine receptor 1A (Homo sapiens, UniProt P08908)
T1 sequence (P08908 whole entry): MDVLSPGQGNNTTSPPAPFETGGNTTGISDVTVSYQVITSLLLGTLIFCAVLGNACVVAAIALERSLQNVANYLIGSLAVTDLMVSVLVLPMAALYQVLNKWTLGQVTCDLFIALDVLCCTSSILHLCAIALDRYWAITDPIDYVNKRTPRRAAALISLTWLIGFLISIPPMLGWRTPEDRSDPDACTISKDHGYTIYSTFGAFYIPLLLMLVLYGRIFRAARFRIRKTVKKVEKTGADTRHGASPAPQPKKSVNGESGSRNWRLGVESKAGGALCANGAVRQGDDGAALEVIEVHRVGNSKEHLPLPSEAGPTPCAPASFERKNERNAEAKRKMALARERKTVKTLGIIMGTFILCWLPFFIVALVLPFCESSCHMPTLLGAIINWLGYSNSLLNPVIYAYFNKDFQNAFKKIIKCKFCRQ

Mus musculus [4] = experiment: Induction of hypothermia in CD-1 mouse assessed as change in body temperature at 5 mg/kg, ip measured after 30 mins by thermometric method; type: functional, organism-based
Mus musculus [5] = experiment: Antidepressant-like activity in CD-1 mouse assessed as decrease in immobility time at 10 mg/kg, ip treated for 30 mins and measured for 4 mins by forced swim test; type: functional, organism-based
Mus musculus [6] = experiment: Induction of hypothermia in CD-1 mouse assessed as change in body temperature at 10 mg/kg, ip measured after 30 mins by thermometric method; type: functional, organism-based
Mus musculus [7] = experiment: Induction of hypothermia in CD-1 mouse assessed as change in body temperature at 15 mg/kg, ip measured after 30 mins by thermometric method (reference value: -0.2 to 0.4 deg C); type: functional, organism-based
Mus musculus [8] = experiment: Induction of hypothermia in CD-1 mouse assessed as change in body temperature at 20 mg/kg, ip measured after 30 mins by thermometric method; type: functional, organism-based
Mus musculus [9] = experiment: Induction of hypothermia in CD-1 mouse assessed as change in body temperature at 5 mg/kg, ip measured after 60 mins by thermometric method; type: functional, organism-based
Mus musculus [10] = experiment: Induction of hypothermia in CD-1 mouse assessed as change in body temperature at 10 mg/kg, ip measured after 60 mins by thermometric method; type: functional, organism-based
Mus musculus [11] = experiment: Induction of hypothermia in CD-1 mouse assessed as change in body temperature at 15 mg/kg, ip measured after 60 mins by thermometric method (reference value: -0.2 to 0.5 deg C); type: functional, organism-based
Mus musculus [12] = experiment: Induction of hypothermia in CD-1 mouse assessed as change in body temperature at 20 mg/kg, ip measured after 60 mins by thermometric method; type: functional, organism-based
Mus musculus [13] = experiment: Induction of hypothermia in CD-1 mouse assessed as change in body temperature at 5 mg/kg, ip measured after 90 mins by thermometric method; type: functional, organism-based
Mus musculus [14] = experiment: Induction of hypothermia in CD-1 mouse assessed as change in body temperature at 10 mg/kg, ip measured after 90 mins by thermometric method; type: functional, organism-based
Mus musculus [15] = experiment: Induction of hypothermia in CD-1 mouse assessed as change in body temperature at 15 mg/kg, ip measured after 90 mins by thermometric method (reference value: -0.3 to 0.3 deg C); type: functional, organism-based
Mus musculus [16] = experiment: Induction of hypothermia in CD-1 mouse assessed as change in body temperature at 20 mg/kg, ip measured after 90 mins by thermometric method; type: functional, organism-based
Mus musculus [17] = experiment: Induction of hypothermia in CD-1 mouse assessed as change in body temperature at 5 mg/kg, ip measured after 120 mins by thermometric method; type: functional, organism-based
Mus musculus [18] = experiment: Induction of hypothermia in CD-1 mouse assessed as change in body temperature at 10 mg/kg, ip measured after 120 mins by thermometric method; type: functional, organism-based
Mus musculus [19] = experiment: Induction of hypothermia in CD-1 mouse assessed as change in body temperature at 15 mg/kg, ip measured after 120 mins by thermometric method (reference value: -0.1 to 0.3 deg C); type: functional, organism-based
Mus musculus [20] = experiment: Induction of hypothermia in CD-1 mouse assessed as change in body temperature at 20 mg/kg, ip measured after 120 mins by thermometric method; type: functional, organism-based
Mus musculus [21] = experiment: Induction of hypothermia in CD-1 mouse assessed as change in body temperature at 10 mg/kg, ip pretreated for 30 mins with 5-HT1AR antagonist WAY100635 followed by compound treatment and measured after 30 mins by thermometric method; type: functional, organism-based
Mus musculus [22] = experiment: Induction of hypothermia in CD-1 mouse assessed as change in body temperature at 10 mg/kg, ip pretreated for 60 mins with 5-HT1AR antagonist WAY100635 followed by compound treatment and measured after 30 mins by thermometric method; type: functional, organism-based
[23] = Half life in human liver microsomes at 1 uM measured for 5 to 30 mins in presence of NADPH by LC-MS/MS analysis; type: ADME, Microsome
hERG (KCNH2) [24] = molecular target: T2, hERG (KCNH2) (Homo sapiens, UniProt Q12809); experiment: Inhibition of human ERG at 10 uM by automated patch-clamp assay relative to control
T2 sequence (Q12809 whole entry): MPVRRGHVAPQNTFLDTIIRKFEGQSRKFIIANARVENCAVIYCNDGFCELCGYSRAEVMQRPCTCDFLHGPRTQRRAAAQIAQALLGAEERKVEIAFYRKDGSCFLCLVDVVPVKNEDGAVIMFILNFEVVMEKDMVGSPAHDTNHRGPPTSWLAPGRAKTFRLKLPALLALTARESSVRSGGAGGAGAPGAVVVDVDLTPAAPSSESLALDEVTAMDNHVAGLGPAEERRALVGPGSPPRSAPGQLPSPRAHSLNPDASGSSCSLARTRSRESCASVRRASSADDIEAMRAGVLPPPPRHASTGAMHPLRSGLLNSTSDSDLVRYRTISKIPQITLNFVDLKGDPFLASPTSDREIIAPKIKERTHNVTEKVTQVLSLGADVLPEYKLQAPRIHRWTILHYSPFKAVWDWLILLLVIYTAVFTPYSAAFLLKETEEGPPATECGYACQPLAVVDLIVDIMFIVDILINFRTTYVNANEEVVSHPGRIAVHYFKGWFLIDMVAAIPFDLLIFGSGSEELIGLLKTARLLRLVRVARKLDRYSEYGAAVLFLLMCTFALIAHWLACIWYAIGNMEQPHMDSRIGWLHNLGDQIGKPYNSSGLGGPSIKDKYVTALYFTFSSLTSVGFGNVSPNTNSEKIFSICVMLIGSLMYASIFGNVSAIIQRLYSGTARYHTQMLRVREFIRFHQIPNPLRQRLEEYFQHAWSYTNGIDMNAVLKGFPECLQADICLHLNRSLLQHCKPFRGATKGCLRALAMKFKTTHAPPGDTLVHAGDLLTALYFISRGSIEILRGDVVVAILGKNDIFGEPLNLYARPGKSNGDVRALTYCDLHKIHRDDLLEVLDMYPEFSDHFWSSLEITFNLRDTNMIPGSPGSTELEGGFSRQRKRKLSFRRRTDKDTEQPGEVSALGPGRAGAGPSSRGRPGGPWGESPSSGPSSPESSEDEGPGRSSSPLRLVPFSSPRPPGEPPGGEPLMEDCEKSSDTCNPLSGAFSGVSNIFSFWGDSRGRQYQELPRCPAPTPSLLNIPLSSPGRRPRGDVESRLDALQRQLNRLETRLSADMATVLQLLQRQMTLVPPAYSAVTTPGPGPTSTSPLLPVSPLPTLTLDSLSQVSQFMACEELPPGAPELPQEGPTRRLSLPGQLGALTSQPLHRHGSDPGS

hERG (KCNH2) [25] = molecular target: T2, hERG (KCNH2); experiment: Inhibition of human ERG at 1 uM by automated patch-clamp assay relative to control
hERG (KCNH2) [26] = molecular target: T2, hERG (KCNH2); experiment: Inhibition of human ERG at 0.1 uM by automated patch-clamp assay relative to control
Mus musculus [27] = experiment: Antidepressant-like activity in CD-1 mouse at 10 mg/kg, ip treated for 30 mins and measured for 4 mins by forced swim test
[28] = system: Alpha-1 adrenergic receptor (Rattus norvegicus); experiment: Displacement of [3H]-prazosin from rat cortex alpha1 adrenergic receptor incubated for 30 mins by microbeta scintillation counting method
[29] = molecular target: T3, 5-hydroxytryptamine receptor 2C (Homo sapiens, UniProt P28335); experiment: Binding affinity to 5-HT2CR (unknown origin)
T3 sequence (P28335 whole entry): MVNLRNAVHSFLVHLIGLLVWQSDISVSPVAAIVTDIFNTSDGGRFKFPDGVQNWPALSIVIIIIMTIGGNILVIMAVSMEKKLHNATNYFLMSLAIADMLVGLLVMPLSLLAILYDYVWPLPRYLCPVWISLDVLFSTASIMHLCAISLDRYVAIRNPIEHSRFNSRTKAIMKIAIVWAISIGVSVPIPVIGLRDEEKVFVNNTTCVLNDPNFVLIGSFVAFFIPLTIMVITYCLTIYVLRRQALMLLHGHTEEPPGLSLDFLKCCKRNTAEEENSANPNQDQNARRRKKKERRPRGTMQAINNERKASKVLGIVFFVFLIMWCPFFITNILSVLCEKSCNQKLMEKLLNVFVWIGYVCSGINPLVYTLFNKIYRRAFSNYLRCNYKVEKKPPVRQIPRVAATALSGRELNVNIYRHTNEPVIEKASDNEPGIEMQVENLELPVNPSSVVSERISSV

5-hydroxytryptamine receptor 2B, sequence (P41595 whole entry): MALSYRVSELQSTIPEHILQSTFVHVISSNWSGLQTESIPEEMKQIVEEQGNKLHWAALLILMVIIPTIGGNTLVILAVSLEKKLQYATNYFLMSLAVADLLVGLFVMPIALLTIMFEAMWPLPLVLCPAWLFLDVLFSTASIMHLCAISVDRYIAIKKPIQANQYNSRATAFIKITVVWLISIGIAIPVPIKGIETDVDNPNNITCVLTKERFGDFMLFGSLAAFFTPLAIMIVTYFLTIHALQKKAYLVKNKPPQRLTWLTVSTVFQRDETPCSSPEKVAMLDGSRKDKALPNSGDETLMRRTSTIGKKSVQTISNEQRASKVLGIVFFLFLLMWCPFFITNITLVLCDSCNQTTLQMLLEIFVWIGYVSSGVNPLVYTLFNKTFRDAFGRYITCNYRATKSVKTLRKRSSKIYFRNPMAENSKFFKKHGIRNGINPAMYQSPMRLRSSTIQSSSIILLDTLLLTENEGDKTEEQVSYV

For `O=c1ccc2ccc(OCCCCN3CCN(c4cccc5sccc45)CC3)cc2[nH]1` [BREXPIPRAZOLE], which Ki [1] is on record?
Its Ki is 398 pM.

And the Ki (D(2) dopamine receptor)?
Its Ki is 300 pM.

And the Ki [2]?
The Ki was 3700 pM.

And the Ki [3]?
Its Ki is 120 pM.

What does the source list for `O=C1CC(c2c[nH]c3ccccc23)C(=O)N1CCCCN1CCC(c2c[nH]c3ccc(F)cc23)CC1` (stereo not given)?
deltaT (Mus musculus [4]): 0.3 °C; Activity (Mus musculus [5]): Active; deltaT (Mus musculus [6]): -1.4 °C; deltaT (Mus musculus [7]): -2 °C; deltaT (Mus musculus [8]): -2.2 °C; deltaT (Mus musculus [9]): 0.4 °C; deltaT (Mus musculus [10]): -0.5 °C; deltaT (Mus musculus [11]): -0.8 °C; deltaT (Mus musculus [12]): -1 °C; deltaT (Mus musculus [13]): 0.5 °C; deltaT (Mus musculus [14]): 0.1 °C; deltaT (Mus musculus [15]): 0 °C; deltaT (Mus musculus [16]): -0.4 °C; deltaT (Mus musculus [17]): 0.2 °C; deltaT (Mus musculus [18]): 0.2 °C; deltaT (Mus musculus [19]): 0.3 °C; deltaT (Mus musculus [20]): -0.3 °C; deltaT (Mus musculus [21]): -0.1 °C; deltaT (Mus musculus [22]): 0.7 °C; half-life at 1 µM [23]: 11.5 min; inhibition at 10 µM (hERG (KCNH2) [24]): 96.4%; inhibition at 1 µM (hERG (KCNH2) [25]): 84.7%; inhibition at 0.1 µM (hERG (KCNH2) [26]): 45.1%; Activity (Mus musculus [27]): Active; Activity [28]: Active

With `CC[C@@H](CO)NC(=O)[C@@H]1C=C2c3cccc4c3c(cn4C)C[C@H]2N(C)C1` [METHYSERGIDE MALEATE] as the molecule, how does the Ki [29] read?
The Ki was 794 pM.

From ChEMBL document CHEMBL4311986, “Synthesis and biological evaluation of new multi-target 3-(1H-indol-3-yl)pyrrolidine-2,5-dione derivatives with potential antidepressant effect” (Eur J Med Chem, 2019)
